A word on the IC50: it is the midpoint of a concentration-inhibition curve. Read a high IC50 as weaker potency.

The target of the assay is T1, IRAK4 (Homo sapiens, UniProt Q9NWZ3).
T1 sequence (Q9NWZ3 1-460): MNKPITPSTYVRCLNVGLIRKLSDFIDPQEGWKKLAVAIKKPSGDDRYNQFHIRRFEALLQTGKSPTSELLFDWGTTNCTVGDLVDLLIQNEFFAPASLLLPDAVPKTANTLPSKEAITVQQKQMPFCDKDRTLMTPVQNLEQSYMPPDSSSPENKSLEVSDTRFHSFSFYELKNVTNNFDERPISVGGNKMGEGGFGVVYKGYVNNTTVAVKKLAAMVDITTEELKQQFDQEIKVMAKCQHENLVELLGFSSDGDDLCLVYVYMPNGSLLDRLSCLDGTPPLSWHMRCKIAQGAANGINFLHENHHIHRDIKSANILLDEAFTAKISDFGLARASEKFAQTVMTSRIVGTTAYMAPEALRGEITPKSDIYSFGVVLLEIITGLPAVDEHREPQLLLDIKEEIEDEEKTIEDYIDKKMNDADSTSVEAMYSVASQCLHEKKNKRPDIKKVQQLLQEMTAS
As to the kind of experiment: 2-hour 1 mM ATP IRAK4 Biochemical assay (as above, but with 100 pM IRAK4 and 1 mM ATP). Conditions: IRAK4 MSD BIOCHEMICAL (1 mM ATP) IC50 (μM), 100 pM IRAK4, 2 hours. Put shortly:
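Run with 100 pM IRAK4 and 1 mM ATP for 2 hours, quenched with EDTA pH 8. Phosphorylated biotinylated peptide captured on streptavidin MSD plates and detected with anti-phosphothreonine antibody plus Sulfo-Tag secondary by electrochemiluminescence.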
`COc1ccccc1C(=O)Nc1cn2cc(C3CCOCC3)nc2c(OC)n1` [Example 457, 2-methoxy-N-(8-methoxy-2-(tetrahydro-2H-pyran-4-yl)imidazo[1,2-a]pyrazin-6-yl)benzamide 2,2,2-trifluoroacetate] displayed an IC50 of 0.096 µM.
In turn, `COc1ncccc1C(=O)Nc1cn2cc(C3CCOCC3)nc2c(OC)n1` [Example 458, 2-methoxy-N-(8-methoxy-2-(tetrahydro-2H-pyran-4-yl)imidazo[1,2-a]pyrazin-6-yl)nicotinamide 2,2,2-trifluoroacetate] registered an IC50 of 0.036 µM.
With `CCOc1ncccc1C(=O)Nc1cn2cc(C3CCOCC3)nc2c(OC)n1` [Example 459, 2-ethoxy-N-(8-methoxy-2-(tetrahydro-2H-pyran-4-yl)imidazo[1,2-a]pyrazin-6-yl)nicotinamide] the figure was 0.022 µM; with `CCCOc1ncccc1C(=O)Nc1cn2cc(C3CCOCC3)nc2c(OC)n1` [Example 460, N-(8-methoxy-2-(tetrahydro-2H-pyran-4-yl)imidazo[1,2-a]pyrazin-6-yl)-2-propoxynicotinamide], 0.025 µM; with `COc1nc(NC(=O)c2ccn(C(C)C)n2)cn2cc(C3CCOCC3)nc12` [Example 462, 1-isopropyl-N-(8-methoxy-2-(tetrahydro-2H-pyran-4-yl)imidazo[1,2-a]pyrazin-6-yl)-1H-pyrazole-3-carboxamide 2,2,2-trifluoroacetate], 0.095 µM.
With `CCn1ccc(C(=O)Nc2cn3cc(C4CCOCC4)nc3c(OC)n2)n1` [Example 463, 1-ethyl-N-(8-methoxy-2-(tetrahydro-2H-pyran-4-yl)imidazo[1,2-a]pyrazin-6-yl)-1H-pyrazole-3-carboxamide 2,2,2-trifluoroacetate], the midpoint of inhibition, the IC50, lay at 0.104 µM.
For the molecule `COc1nc(NC(=O)c2ccn(CC(C)C)n2)cn2cc(C3CCOCC3)nc12` [Example 464, 1-isobutyl-N-(8-methoxy-2-(tetrahydro-2H-pyran-4-yl)imidazo[1,2-a]pyrazin-6-yl)-1H-pyrazole-3-carboxamide], 0.205 µM corresponded to half-maximal inhibition (IC50).
`COc1ccccc1C(=O)Nc1cn2cc(C34CCC(C)(C3)OC4)nc2c(OC)n1` (stereo not shown) [Example 465, 2-methoxy-N-(8-methoxy-2-(1-methyl-2-oxabicyclo[2.2.1]heptan-4-yl)imidazo[1,2-a]pyrazin-6-yl)benzamide 2,2,2-trifluoroacetate]: the IC50 was 0.037 µM.
The value for `COc1c(F)cccc1C(=O)Nc1cn2cc(C34CCC(C)(C3)OC4)nc2c(OC)n1` (stereo not shown) [Example 466, 3-fluoro-2-methoxy-N-(8-methoxy-2-(1-methyl-2-oxabicyclo[2.2.1]heptan-4-yl)imidazo[1,2-a]pyrazin-6-yl)benzamide 2,2,2-trifluoroacetate] was 0.059 µM.
As to `COc1nc(NC(=O)c2cccc(C)c2F)cn2cc(C34CCC(C)(C3)OC4)nc12` (stereo not shown) [Example 467, 2-fluoro-N-(8-methoxy-2-(1-methyl-2-oxabicyclo[2.2.1]heptan-4-yl)imidazo[1,2-a]pyrazin-6-yl)-3-methylbenzamide 2,2,2-trifluoroacetate], the IC50 came to 0.051 µM.
Regarding `COc1ncccc1C(=O)Nc1cn2cc(C34CCC(C)(C3)OC4)nc2c(OC)n1` (stereo not shown) [Example 468, 2-methoxy-N-(8-methoxy-2-(1-methyl-2-oxabicyclo[2.2.1]heptan-4-yl)imidazo[1,2-a]pyrazin-6-yl)nicotinamide 2,2,2-trifluoroacetate], half-maximal inhibition (IC50) required 0.022 µM.
`COc1nc(NC(=O)c2cccc3c2OCC3)cn2cc(C34CCC(C)(C3)OC4)nc12` (stereo not shown) [Example 469, N-(8-methoxy-2-(1-methyl-2-oxabicyclo[2.2.1]heptan-4-yl)imidazo[1,2-a]pyrazin-6-yl)-2,3-dihydrobenzofuran-7-carboxamide 2,2,2-trifluoroacetate] registered an IC50 of 0.008 µM.
Turning to `COc1nc(NC(=O)c2cccc3ccnn23)cn2cc(C34CCC(C)(C3)OC4)nc12` (stereo not shown) [Example 470, N-(8-methoxy-2-(1-methyl-2-oxabicyclo[2.2.1]heptan-4-yl)imidazo[1,2-a]pyrazin-6-yl)pyrazolo[1,5-a]pyridine-7-carboxamide 2,2,2-trifluoroacetate], the IC50 was 0.006 µM.
Regarding `COc1nc(NC(=O)c2coc(C)n2)cn2cc(C34CCC(C)(C3)OC4)nc12` (stereo not shown) [Example 471, N-(8-methoxy-2-(1-methyl-2-oxabicyclo[2.2.1]heptan-4-yl)imidazo[1,2-a]pyrazin-6-yl)-2-methyloxazole-4-carboxamide 2,2,2-trifluoroacetate], the IC50 was found to be 0.022 µM.
In the case of `COc1nc(NC(=O)c2coc(C3CC3)n2)cn2cc(C34CCC(C)(C3)OC4)nc12` (stereo not shown) [Example 472, 2-cyclopropyl-N-(8-methoxy-2-(1-methyl-2-oxabicyclo[2.2.1]heptan-4-yl)imidazo[1,2-a]pyrazin-6-yl)oxazole-4-carboxamide 2,2,2-trifluoroacetate], half-maximal inhibition (IC50) required 0.015 µM.
Regarding `CCOc1nc(NC(=O)c2coc(C)n2)cn2cc(C34COC(C)(C3)C4)nc12` [Example 473, N-(8-ethoxy-2-(1-methyl-2-oxabicyclo[2.1.1]hexan-4-yl)imidazo[1,2-a]pyrazin-6-yl)-2-methyloxazole-4-carboxamide], the half-maximal inhibitory concentration (IC50) is 0.031 µM.
In turn, `CCOc1nc(NC(=O)c2cccc(C)n2)cn2cc(C3CCOCC3)nc12` [Example 474, N-(8-ethoxy-2-(tetrahydro-2H-pyran-4-yl)imidazo[1,2-a]pyrazin-6-yl)-6-methylpicolinamide 2,2,2-trifluoroacetate] registered an IC50 of 0.025 µM.
In turn, `CCOc1nc(NC(=O)c2cccc(C(F)F)n2)cn2cc(C3CCOCC3)nc12` [Example 475, 6-(difluoromethyl)-N-(8-ethoxy-2-(tetrahydro-2H-pyran-4-yl)imidazo[1,2-a]pyrazin-6-yl)picolinamide 2,2,2-trifluoroacetate] gave an IC50 of 0.008 µM.
With `CCCOc1nc(NC(=O)c2cccc(C(F)F)n2)cn2cc(C3CCOCC3)nc12` [Example 476, 6-(difluoromethyl)-N-(8-propoxy-2-(tetrahydro-2H-pyran-4-yl)imidazo[1,2-a]pyrazin-6-yl)picolinamide 2,2,2-trifluoroacetate] the figure was 0.006 µM; with `COc1ccccc1C(=O)Nc1cn2cc(C34COC(C)(C3)C4)nc2c(OC(C)C)n1` [Example 477, N-(8-isopropoxy-2-(1-methyl-2-oxabicyclo[2.1.1]hexan-4-yl)imidazo[1,2-a]pyrazin-6-yl)-2-methoxybenzamide 2,2,2-trifluoroacetate], 0.015 µM; with `Cc1cccc(C(=O)Nc2cn3cc(C45COC(C)(C4)C5)nc3c(OC(C)C)n2)c1F` [Example 478, 2-fluoro-N-(8-isopropoxy-2-(1-methyl-2-oxabicyclo[2.1.1]hexan-4-yl)imidazo[1,2-a]pyrazin-6-yl)-3-methylbenzamide 2,2,2-trifluoroacetate], 0.012 µM.
`COc1cc(F)ccc1C(=O)Nc1cn2cc(C34COC(C)(C3)C4)nc2c(OC(C)C)n1` [Example 479, 4-fluoro-N-(8-isopropoxy-2-(1-methyl-2-oxabicyclo[2.1.1]hexan-4-yl)imidazo[1,2-a]pyrazin-6-yl)-2-methoxybenzamide 2,2,2-trifluoroacetate] yielded an IC50 of 0.015 µM.
`CC(C)Oc1nc(NC(=O)c2cccc3ncnn23)cn2cc(C34COC(C)(C3)C4)nc12` [Example 480, N-(8-isopropoxy-2-(1-methyl-2-oxabicyclo[2.1.1]hexan-4-yl)imidazo[1,2-a]pyrazin-6-yl)-[1,2,4]triazolo[1,5-a]pyridine-5-carboxamide] had an IC50 of 0.005 µM.
Consider `CC(C)Oc1nc(NC(=O)c2ccnc3ccnn23)cn2cc(C34COC(C)(C3)C4)nc12` [Example 481, N-(8-isopropoxy-2-(1-methyl-2-oxabicyclo[2.1.1]hexan-4-yl)imidazo[1,2-a]pyrazin-6-yl)pyrazolo[1,5-a]pyrimidine-7-carboxamide], for which the IC50 turned out to be 0.025 µM.
The value for `CC(C)Oc1nc(NC(=O)c2cnn3cccc(F)c23)cn2cc(C34COC(C)(C3)C4)nc12` [Example 482, 4-fluoro-N-(8-isopropoxy-2-(1-methyl-2-oxabicyclo[2.1.1]hexan-4-yl)imidazo[1,2-a]pyrazin-6-yl)pyrazolo[1,5-a]pyridine-3-carboxamide] was 0.015 µM.
`COc1ccccc1C(=O)Nc1cn2cc(C34COC(CF)(C3)C4)nc2c(OC(C)C)n1` [Example 483, N-(2-(1-(fluoromethyl)-2-oxabicyclo[2.1.1]hexan-4-yl)-8-isopropoxyimidazo[1,2-a]pyrazin-6-yl)-2-methoxybenzamide 2,2,2-trifluoroacetate] came in with an IC50 of 0.022 µM.
Molecule `Cc1nc(C(=O)Nc2cn3cc(C45COC(C)(C4)C5)nc3c(OC3CCC3)n2)co1` [Example 484, N-(8-cyclobutoxy-2-(1-methyl-2-oxabicyclo[2.1.1]hexan-4-yl)imidazo[1,2-a]pyrazin-6-yl)-2-methyloxazole-4-carboxamide] returned an IC50 of 0.02 µM.
Molecule `CC12CC(c3cn4cc(NC(=O)c5coc(C(F)F)n5)nc(OC5CCC5)c4n3)(CO1)C2` [Example 485, N-(8-cyclobutoxy-2-(1-methyl-2-oxabicyclo[2.1.1]hexan-4-yl)imidazo[1,2-a]pyrazin-6-yl)-2-(difluoromethyl)oxazole-4-carboxamide 2,2,2-trifluoroacetate] registered an IC50 of 0.037 µM.

The values above are taken from patent publication US20220089592A1, “IMIDAZO[1,2-A]PYRIDINYL DERIVATIVES AS IRAK4 INHIBITORS” (priority 2019, published 2022).
